Assay results from patent publication US20060270591A1, “Androgen receptor coregulators” (priority 2002, published 2006).

Experiments:
[1] = system: p27^KIP1; test: Western blot of p27KIP1 in PC-3(AR2) cells; assay type: cell-based, human; conditions: 10 nM DHT
Procedure: 41. […] (A) C2C12, COS-1, DU145 and PC-3 cell lines were co-transfected with 30 ng pSG5-AR, 0.5 μg MMTV-Luc, 1 ng pRL-SV40, various amounts of pSG5-bSV as indicated, and adjusted to total amount of 2 μg DNA with pSG5. The assay method was the same as FIG. 2. After measuring the luciferase activity, values relative to lane 1 were calculated. Results are the mean±S.D. of three independent experiments. (B) PC-3 was co-transfected with 30 ng pSG5-AR, 1.5 μg pSG5-bSV, 1 ng pRL-SV40, and 0.5 μg reporter gene as indicated by using SuperFect. […] (C) PC-3(AR2) cell line was transfected with EGFP or EGFP-bSV expressing vector using SuperFect. […] Proteins extracted from cells were loaded on 15% SDS-PAGE and analyzed by western blotting. The intensity of each p27 band was quantified and normalized with control protein which is a non-specific band pick up by the antibody in the same blot. The relative intensities to lane 1 were calculated.
478. Protein samples extracted from the cell were separated on 15% SDS-PAGE and transferred to nitrocellulose membranes. Membranes were incubated 1 h with 5% non-fat milk in TBST at room temperature, followed by the antibodies against p27^(KIP1) (Santa Cruz), followed by AP conjugated goat-antimouse antibody. Blots were developed using the AP developing reagent from Bio-Rad. Band intensity was quantitated by Collage® image analysis software (Fotodyne Inc.).

[2] = system: LNCaP cell; conditions: 10 nM DHT; cited from earlier work
[3] = system: ARA70 and AR; conditions: LNCaP cells; cited from earlier work
[4] = system: AR; test: AR reporter gene assay with gelsolin (Example 5); assay type: cell-based, human; conditions: for effect on gelsolin enhanced AR activity: PC-3 cells, co-transfected flag-AR peptides
Excerpt: 468. A C-terminal fragment of gelsolin (aa 281-731) was isolated from pACT2 encoding gelsolin, and inserted into pSG5-Gal4 DNA-binding domain (DBD) (constructed by Dr. R. Nakao). AR fragment (aa 36-918) was inserted into pCMX-VP16 (a gift from Dr. D. Chen). For gelsolin expression vector, a full-length cDNA fragment of gelsolin from LKCG, a gift from Dr. D. Kwiatkowski (Northwestern University, Evanston, Ill.), was inserted into pSG5. Dr. M. L. Lu (Harvard Medical School, Boston, Mass.) provided the p (ARE) 4-luciferase (LUC) plasmid. Dr. A. Mizokami (University of Kanazawa, Kanazawa, Japan) provided the pGL3-PSA6.0LUC plasmid. The expression plasmids of AR peptides were constructed by inserting the PCR amplified cDNA fragment of AR DBD into pFlag-CMV (Sigma) and the fragments of AR LBD into pCDNA-flag plasmid. Transfection protocol and reporter gene assay were described in previous report (Ting et al. Proc Natl Acad Sci USA 99, 661-666 (2002)).
Target sequence in this assay (P10275 with tags, fused parts or gaps DEL79-80/DUP473-473): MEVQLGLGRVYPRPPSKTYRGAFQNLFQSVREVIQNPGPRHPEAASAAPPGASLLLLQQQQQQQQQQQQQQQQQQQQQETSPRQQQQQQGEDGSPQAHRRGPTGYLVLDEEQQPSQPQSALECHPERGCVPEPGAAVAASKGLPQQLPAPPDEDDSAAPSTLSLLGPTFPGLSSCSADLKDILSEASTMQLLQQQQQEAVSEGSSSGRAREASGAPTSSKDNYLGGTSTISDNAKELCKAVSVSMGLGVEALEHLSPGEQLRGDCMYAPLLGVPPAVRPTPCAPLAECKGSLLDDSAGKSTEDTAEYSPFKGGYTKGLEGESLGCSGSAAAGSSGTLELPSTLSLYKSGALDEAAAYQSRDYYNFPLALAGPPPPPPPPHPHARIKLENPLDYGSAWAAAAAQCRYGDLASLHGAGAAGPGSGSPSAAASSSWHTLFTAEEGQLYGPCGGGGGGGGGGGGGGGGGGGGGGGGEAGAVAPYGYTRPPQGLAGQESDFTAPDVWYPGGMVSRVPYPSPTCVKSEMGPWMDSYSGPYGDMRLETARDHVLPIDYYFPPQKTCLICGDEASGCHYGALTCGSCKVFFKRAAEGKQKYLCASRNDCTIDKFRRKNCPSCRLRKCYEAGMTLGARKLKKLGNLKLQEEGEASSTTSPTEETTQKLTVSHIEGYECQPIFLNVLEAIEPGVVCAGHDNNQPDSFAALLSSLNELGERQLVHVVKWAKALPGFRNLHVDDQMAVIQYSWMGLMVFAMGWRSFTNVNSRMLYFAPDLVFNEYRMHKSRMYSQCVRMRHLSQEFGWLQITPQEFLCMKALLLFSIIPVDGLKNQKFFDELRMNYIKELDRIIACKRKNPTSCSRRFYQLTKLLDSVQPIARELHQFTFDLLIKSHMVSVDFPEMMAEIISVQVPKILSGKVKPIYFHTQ

[5] = target: T1, AR N-terminus and AR C-terminus (Homo sapiens, UniProt P10275); test: Mammalian two-hybrid assay of AR N-C interaction in PC-3 cells; assay type: cell-based; conditions: DHT
T1 construct: AR DBD plus LBD (GST-AR-DL); expressed in transfected cells; host or cells: PC-3 cells (human prostate cancer line)
T1 sequence (P10275 555-920 limits assumed): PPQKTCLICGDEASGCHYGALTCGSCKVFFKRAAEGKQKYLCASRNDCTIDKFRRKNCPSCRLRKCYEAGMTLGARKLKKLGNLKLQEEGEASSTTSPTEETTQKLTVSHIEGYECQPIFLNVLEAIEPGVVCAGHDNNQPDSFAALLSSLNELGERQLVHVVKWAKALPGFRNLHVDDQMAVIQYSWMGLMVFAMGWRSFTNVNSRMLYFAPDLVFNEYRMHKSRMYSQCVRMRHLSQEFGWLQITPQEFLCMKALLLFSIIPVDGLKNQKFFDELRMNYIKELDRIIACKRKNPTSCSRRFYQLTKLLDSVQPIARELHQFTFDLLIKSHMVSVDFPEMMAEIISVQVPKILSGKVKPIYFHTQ
T1 sequence (P10275 1-559 partner limits assumed): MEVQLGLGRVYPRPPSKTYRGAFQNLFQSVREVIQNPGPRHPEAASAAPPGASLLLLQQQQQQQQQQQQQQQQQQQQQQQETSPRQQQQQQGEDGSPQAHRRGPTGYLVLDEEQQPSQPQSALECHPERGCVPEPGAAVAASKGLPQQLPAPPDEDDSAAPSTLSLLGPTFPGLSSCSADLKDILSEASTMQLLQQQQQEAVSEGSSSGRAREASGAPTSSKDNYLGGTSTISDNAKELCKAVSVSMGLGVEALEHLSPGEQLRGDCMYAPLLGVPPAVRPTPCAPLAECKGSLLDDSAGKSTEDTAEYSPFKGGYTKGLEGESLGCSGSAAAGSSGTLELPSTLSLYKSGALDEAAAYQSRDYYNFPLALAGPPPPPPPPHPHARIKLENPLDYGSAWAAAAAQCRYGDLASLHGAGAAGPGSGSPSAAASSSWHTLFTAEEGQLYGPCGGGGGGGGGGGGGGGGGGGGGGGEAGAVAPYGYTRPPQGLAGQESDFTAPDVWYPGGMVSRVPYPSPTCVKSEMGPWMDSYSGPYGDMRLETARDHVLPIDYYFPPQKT
Procedure: 44. […] PC-3 cells were transfected with 30 ng plasmids expressing Gal4(DBD)-AR-DL, VP16 or VP16-ARN combined with 1.5 μg pSG5, pSG5-bSV, -ARA55, or -SRC-1α as indicated. The reporter plasmid pG5-Luc (0.5 μg) and control plasmid pRL-Luc (1 ng) were transfected to every sample. The assay was carried out as described in FIG. 29C.
474. Mouse myoblast cell line (C2C12), human prostate cancer cell lines (PC-3 and DU145), and monkey kidney fibroblast cell line (COS-1) were maintained in Dulbecco's minimum essential medium (DMEM) containing penicillin (25 units/ml), streptomycin ([…]), and 10% fetal bovine serum (FBS). In mammalian two-hybrid assay, transfections were performed using the calcium phosphate precipitation method as described previously (15). Briefly, 1.5-3×10^5 cells were plated on 35-mm dishes for 24 h, and the medium was changed to DMEM containing 10% charcol-dextran stripped FBS (CD-FBS) 2 h before transfection. Cells were transfected with 0.5 μg plasmids expressing Gal4(DBD) and VP-16 fusion proteins as indicated. Gal4 response element controlled Firefly luciferase expression plasmid, pG5-Luc, was used as reporter gene. A Renilla luciferase expression plasmid pRL-SV40 was used as an internal control for transfection efficiency. The total amount of DNA was adjusted to 5 μg with pCMX-VP16 vectors. […]

[6] = system: AR; test: AR transactivation assay, MMTV-CAT reporter, transient transfection (Example 1); assay type: cell-based, human; conditions: PC3 cells; TGF-β 5 ng/ml
Procedure: Human prostate cancer DU145 or PC3 cells, or human lung carcinoma cells NCI H1299 were grown in Dulbecco's minimal essential medium (DMEM) containing penicillin (25 U/ml), streptomycin (25˜g/ml), and 5% fetal calf serum (FCS). One hour before transfection, the medium was changed to DMEM with 5% charcoal-stripped FCS. […] A β-galactosidase expression plasmid, pCMV-β-gal, was used as an internal control for transfection efficiency.
The medium was changed 24 hr posttransfection and the cells treated with either steroid hormones or hydroxyflutamide, and cultured for an additional 24 hr. Cells were harvested and assayed for CAT activity after the cell lysates were normalized by using β-galactosidaseas an internal control. Chloramphenicol acetyltransferase (CA) activity was visualized by PhosphorImager (Molecular Dynamics) and quantitated by ImageQuant software (Molecular Dynamics).
Target sequence in this assay (P10275 whole entry, the tested form may be a part): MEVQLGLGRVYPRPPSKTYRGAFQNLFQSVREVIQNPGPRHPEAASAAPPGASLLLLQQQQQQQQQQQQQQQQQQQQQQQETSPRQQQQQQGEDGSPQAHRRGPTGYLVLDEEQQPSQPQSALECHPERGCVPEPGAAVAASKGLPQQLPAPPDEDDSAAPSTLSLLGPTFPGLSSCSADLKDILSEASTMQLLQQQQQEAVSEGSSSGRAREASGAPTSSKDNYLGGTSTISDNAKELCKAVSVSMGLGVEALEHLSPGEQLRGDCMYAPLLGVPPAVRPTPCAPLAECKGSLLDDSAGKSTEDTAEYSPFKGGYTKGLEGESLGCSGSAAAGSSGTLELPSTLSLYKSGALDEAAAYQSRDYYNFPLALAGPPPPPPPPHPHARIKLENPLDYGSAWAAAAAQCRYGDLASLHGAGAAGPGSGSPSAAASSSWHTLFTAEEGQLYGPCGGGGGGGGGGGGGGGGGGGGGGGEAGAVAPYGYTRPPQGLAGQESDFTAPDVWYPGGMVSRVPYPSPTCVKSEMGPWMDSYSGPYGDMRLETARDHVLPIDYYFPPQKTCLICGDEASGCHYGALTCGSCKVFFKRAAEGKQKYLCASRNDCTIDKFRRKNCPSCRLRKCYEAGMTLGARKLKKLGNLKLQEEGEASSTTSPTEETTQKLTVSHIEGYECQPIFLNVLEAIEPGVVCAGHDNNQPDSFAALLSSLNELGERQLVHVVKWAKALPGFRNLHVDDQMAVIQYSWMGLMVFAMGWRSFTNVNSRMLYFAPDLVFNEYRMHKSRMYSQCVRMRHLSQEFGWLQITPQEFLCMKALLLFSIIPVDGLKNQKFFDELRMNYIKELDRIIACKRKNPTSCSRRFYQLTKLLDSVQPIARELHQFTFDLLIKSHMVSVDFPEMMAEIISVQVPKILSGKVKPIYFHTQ

[7] = system: ARA55 mRNA; test: Northern blot of ARA55 mRNA in PC3 cells; assay type: cell-based, human; conditions: 5 ng/ml
Excerpt: 360. The total RNA (25˜g) was fractionated on a 1% formaldehyde-MOPS agarose gel, transferred onto a Hybond-N nylon membrane (Amersham) and prehybridized. A probe corresponding to the 900 bp C-terminus of ARA55 or an ARA54-specific sequence was 32P-labeled in vitro using Random Primed DNA Labeling Kit (Boehringer-Mannheim) according to the manufacture's protocol and hybridized overnight. After washing, the blot was exposed and quantified by Molecular Dynamics PhosphorImager. β-actin was used to monitor the amount of total RNA in each lane.

[8] = system: AR; test: AR transactivation dual-luciferase assay with supervillin (Example 6); assay type: cell-based, human; conditions: COS-1 cells; 10 nM DHT; MMTV-Luc
Procedure: In AR transactivation activity assays, transfections were performed using SuperFect (Qiagen, Chatsworth, Calif.) following protocols described in manual provided by Qiagen. Briefly, cells were plated on 35 mm dishes and after 24 h were transfected using the SuperFect kit. The total DNA amount was adjusted to 2 μg with pSG5 or pEGFP vectors. The medium was changed to DMEM with 10% CD-FBS 2 h after transfection. After 24 h, the DMEM with 10% CD-FBS was changed again, and the cells were treated with various steroids. Cells were harvested after 24 h for dual-luciferase assay as described in protocol provided by Promega. At least three independent experiments were carried out in each case.
Target sequence in this assay (P10275 with tags, fused parts or gaps DEL79-80/DUP473-473): as the sequence (P10275 with tags, fused parts or gaps DEL79-80/DUP473-473) above

## C[C@]12CCC(=O)C[C@@H]1CC[C@@H]1[C@@H]2CC[C@]2(C)[C@@H](O)CC[C@@H]12 [DHT, 5α-dihydrotestosterone, reference compound]
[1]
  p27^(KIP1) protein expression: induced p27^(KIP1) protein expression
[2]
  LNCaP cell apoptosis: promotes LNCaP cell apoptosis

## Oc1ccc(C=Cc2cc(O)cc(O)c2)cc1 [resveratrol]
[3]
  expression of ARA70 and AR transactivation: repress the expression of ARA70 and AR transactivation

## D1: AR peptide D1 (aa 551-600) within AR DBD (DYYFPPQKTCLICGDEASGCHYGALTCGSCKVFFKRAAEGKQKYLCASRN; UniProt P10275 551-600, looked up, fragment)
[4]
  effect on gelsolin enhanced AR activity: suppressed gelsolin enhanced AR activity

## HI-2: AR peptide H1-2 (aa 655-695) within AR LBD (TTQKLTVSHIEGYECQPIFLNVLEAIEPGVVCAGHDNNQPD; left off: small tags and cut ends)
[4]
  effect on gelsolin enhanced AR activity: suppressed gelsolin enhanced AR activity

## SRC-1: p160 steroid receptor coactivator-1
[5]
  effect on AR N-C interaction: further enhance

## TGF-β [reference compound]
[6]
  increase of AR transcription activity: 70%
[7]
  induction of ARA55 mRNA: 2 fold

## bSV(831-1281): peptide containing a.a. 831-1281 of bSV, conjugated with EGFP
[8]
  AR transactivation with EGFP-bSV construct: 248 fold

## bSV(1010-1792): domain within SV (a.a. 1010-1792), conjugated with EGFP
[8]
  effect of EGFP-bSV construct on AR transactivation: only a marginal effect

## gelsolin: multifunction actin-binding protein, AR coregulator
[4]; 100 nM HF, normal 10% FCS medium
  inhibition of AR activity by HF with added gelsolin: 40%
[4]; DU145 cells, 10 nM DHT
  enhancement of AR transcription activity: 2-3 fold
[4]; DU145 cells, absence of DHT
  effect on AR transcription activity: no significant effect
